Assays:
Vasopressin V1a receptor = Vasopressin V1a receptor (Homo sapiens, UniProt P37288); test: Inhibition of Vasopressin V1A receptor (unknown origin)
Spike glycoprotein = Spike glycoprotein (Severe acute respiratory syndrome coronavirus 2, UniProt P0DTC2); test: Binding affinity to SARS-Cov-2 Spike protein assessed as dissociation constant
MCF7 = test: Antiproliferative activity against human MCF7 cells assessed as reduction in cell viability; format: functional, cell-based
Histone deacetylase 1 = Histone deacetylase 1 (Homo sapiens, UniProt Q13547); test: Inhibition of HDAC1 (unknown origin)
Histone deacetylase 1, sequence (Q13547 whole entry): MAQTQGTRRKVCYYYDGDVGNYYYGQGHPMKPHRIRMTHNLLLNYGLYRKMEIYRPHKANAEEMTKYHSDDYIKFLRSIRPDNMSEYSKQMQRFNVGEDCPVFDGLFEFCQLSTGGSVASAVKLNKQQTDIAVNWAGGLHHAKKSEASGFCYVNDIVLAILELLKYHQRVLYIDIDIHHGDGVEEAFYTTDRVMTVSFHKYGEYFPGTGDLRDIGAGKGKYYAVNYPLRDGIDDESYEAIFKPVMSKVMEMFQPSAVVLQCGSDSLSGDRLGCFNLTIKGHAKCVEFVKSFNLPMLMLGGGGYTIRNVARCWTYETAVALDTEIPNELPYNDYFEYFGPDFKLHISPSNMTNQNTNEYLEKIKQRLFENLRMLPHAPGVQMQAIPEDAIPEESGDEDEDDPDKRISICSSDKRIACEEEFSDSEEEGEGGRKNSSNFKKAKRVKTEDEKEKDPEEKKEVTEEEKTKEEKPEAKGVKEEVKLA

Histone deacetylase 4 = Histone deacetylase 4 (Homo sapiens, UniProt P56524); test: Inhibition of HDAC4 (unknown origin)
Histone deacetylase 4, sequence (P56524 whole entry): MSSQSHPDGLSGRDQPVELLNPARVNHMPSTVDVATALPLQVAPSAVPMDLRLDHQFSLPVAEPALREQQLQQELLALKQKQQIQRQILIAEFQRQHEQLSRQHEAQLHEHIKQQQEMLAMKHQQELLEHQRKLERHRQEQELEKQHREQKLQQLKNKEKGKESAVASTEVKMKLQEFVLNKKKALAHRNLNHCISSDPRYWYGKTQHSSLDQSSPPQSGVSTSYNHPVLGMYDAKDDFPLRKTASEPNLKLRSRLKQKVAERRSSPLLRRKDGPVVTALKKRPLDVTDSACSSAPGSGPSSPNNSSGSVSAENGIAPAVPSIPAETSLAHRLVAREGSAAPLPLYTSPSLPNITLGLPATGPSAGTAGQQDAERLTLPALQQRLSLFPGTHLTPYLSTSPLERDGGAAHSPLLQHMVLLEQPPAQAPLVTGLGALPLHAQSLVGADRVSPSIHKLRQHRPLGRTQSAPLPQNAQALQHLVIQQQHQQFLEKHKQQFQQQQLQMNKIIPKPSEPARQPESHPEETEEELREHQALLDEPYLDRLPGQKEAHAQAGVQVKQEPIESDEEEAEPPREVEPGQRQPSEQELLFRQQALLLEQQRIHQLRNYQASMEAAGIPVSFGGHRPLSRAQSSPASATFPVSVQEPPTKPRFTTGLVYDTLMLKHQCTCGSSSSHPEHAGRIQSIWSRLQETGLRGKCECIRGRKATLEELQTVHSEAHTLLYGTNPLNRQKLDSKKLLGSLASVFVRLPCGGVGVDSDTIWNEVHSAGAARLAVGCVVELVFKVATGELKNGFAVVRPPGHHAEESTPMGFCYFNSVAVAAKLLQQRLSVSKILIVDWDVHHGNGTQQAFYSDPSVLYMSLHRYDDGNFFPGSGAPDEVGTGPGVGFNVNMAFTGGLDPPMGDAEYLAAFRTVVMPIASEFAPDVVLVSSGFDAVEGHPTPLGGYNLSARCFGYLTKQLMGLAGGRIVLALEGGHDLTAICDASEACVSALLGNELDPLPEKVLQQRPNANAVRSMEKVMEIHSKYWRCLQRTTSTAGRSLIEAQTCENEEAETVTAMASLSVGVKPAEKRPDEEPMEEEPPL

Histone deacetylase 5 = Histone deacetylase 5 (Homo sapiens, UniProt Q9UQL6); test: Inhibition of HDAC5 (unknown origin)
Histone deacetylase 5, sequence (Q9UQL6 whole entry): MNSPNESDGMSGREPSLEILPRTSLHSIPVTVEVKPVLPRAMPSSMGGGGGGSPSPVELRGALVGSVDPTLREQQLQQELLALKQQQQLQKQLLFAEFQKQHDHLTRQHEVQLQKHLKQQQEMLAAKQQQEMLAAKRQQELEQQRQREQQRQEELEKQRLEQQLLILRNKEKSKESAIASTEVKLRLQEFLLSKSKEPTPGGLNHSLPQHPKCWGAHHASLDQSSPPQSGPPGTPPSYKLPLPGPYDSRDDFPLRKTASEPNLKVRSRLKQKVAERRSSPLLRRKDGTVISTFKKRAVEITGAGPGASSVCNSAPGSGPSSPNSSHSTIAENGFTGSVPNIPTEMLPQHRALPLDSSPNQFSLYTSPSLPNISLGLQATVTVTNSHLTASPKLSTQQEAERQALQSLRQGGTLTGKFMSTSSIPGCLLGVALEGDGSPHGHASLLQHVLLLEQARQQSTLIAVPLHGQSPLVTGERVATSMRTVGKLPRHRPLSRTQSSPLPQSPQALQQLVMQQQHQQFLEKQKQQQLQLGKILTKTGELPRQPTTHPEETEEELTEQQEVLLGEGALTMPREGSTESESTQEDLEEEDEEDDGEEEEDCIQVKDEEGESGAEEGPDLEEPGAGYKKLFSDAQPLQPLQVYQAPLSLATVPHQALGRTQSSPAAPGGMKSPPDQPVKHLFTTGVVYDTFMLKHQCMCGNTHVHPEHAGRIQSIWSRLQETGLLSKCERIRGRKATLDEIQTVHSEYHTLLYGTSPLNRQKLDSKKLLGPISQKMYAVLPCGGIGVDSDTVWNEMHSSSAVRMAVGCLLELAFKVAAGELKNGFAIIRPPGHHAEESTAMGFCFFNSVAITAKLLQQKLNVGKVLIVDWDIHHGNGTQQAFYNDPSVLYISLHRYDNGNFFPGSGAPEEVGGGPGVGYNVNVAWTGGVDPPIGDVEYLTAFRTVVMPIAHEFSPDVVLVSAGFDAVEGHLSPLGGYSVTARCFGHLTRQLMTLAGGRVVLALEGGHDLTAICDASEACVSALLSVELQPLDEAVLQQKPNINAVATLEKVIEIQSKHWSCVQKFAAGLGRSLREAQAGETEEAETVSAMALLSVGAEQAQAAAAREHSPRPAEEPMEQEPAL

[1] = target: T1, Protein deacetylase HDAC6 (Homo sapiens, UniProt Q9UBN7); test: Inhibition of HDAC6 (unknown origin)
T1 sequence (Q9UBN7 whole entry): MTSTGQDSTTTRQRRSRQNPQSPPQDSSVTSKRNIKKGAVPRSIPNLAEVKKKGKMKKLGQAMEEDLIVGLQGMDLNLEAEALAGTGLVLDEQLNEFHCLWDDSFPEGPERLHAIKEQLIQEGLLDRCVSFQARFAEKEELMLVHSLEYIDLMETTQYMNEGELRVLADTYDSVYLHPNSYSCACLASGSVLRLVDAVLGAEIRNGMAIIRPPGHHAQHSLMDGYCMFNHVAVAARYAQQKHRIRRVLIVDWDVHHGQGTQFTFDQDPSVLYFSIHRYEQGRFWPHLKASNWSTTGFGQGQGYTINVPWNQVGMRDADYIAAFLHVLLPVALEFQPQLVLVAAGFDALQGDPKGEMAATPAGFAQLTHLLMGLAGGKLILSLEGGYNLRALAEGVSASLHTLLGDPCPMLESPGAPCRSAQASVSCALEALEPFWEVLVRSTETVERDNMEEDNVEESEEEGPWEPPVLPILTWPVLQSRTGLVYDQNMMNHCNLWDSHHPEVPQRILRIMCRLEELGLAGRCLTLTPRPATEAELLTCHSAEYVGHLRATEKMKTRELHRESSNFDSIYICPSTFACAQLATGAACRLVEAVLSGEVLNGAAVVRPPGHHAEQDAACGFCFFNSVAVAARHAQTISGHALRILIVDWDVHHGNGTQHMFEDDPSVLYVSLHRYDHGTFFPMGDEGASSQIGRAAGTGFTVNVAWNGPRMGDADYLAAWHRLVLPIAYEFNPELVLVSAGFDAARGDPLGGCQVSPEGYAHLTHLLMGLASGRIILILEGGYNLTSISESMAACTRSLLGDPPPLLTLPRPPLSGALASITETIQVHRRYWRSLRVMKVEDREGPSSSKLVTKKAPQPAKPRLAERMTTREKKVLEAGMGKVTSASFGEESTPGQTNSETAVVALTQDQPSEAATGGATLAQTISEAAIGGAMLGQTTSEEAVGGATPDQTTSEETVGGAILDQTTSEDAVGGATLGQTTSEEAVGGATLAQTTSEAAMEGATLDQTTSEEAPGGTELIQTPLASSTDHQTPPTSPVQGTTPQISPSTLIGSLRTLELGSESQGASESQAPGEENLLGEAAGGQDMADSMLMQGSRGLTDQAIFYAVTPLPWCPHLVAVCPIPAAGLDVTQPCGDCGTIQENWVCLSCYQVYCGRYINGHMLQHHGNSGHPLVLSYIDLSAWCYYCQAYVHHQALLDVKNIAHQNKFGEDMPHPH

Histone deacetylase 7 = target: T2, Histone deacetylase 7 (Homo sapiens, UniProt Q8WUI4); test: Inhibition of HDAC7 (unknown origin)
T2 sequence (Q8WUI4 whole entry): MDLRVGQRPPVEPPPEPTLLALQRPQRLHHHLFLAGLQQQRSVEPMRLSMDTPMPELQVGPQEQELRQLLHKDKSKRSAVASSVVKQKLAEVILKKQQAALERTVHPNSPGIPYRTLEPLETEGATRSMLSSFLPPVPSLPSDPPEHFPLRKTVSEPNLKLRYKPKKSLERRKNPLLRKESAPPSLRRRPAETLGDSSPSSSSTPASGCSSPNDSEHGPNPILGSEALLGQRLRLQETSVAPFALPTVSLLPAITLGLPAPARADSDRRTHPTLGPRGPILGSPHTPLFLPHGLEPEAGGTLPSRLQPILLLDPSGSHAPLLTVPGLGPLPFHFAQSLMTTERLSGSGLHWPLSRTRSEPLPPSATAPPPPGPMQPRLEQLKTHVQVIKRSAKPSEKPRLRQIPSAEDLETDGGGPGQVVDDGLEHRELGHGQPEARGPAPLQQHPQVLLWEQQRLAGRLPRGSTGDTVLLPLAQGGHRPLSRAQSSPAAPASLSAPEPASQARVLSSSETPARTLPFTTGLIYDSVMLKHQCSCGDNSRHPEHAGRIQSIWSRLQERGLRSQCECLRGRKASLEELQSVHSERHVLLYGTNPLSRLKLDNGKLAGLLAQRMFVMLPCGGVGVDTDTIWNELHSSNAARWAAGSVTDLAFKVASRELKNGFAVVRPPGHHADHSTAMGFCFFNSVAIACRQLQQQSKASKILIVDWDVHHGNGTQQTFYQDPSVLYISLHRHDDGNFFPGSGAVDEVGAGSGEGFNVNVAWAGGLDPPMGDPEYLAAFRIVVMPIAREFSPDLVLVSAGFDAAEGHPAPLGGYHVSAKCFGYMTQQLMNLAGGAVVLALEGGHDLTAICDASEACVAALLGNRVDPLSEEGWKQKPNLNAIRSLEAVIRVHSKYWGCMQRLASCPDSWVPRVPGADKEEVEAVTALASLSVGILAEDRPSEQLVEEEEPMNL

Histone deacetylase 8 = target: T3, Histone deacetylase 8 (Homo sapiens, UniProt Q9BY41); test: Inhibition of HDAC8 (unknown origin)
T3 sequence (Q9BY41 whole entry): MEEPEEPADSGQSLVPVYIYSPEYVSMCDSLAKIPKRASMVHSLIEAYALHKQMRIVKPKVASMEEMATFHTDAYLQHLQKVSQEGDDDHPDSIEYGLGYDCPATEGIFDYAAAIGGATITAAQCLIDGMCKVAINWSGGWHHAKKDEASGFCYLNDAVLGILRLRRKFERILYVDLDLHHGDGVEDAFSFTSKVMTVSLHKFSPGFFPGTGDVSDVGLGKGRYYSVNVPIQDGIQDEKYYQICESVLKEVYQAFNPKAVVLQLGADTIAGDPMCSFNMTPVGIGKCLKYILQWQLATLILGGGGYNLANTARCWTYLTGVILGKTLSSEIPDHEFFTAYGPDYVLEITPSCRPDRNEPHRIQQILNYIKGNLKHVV

Histone deacetylase 9 = Histone deacetylase 9 (Homo sapiens, UniProt Q9UKV0); test: Inhibition of HDAC9 (unknown origin)
Histone deacetylase 9, sequence (Q9UKV0 whole entry): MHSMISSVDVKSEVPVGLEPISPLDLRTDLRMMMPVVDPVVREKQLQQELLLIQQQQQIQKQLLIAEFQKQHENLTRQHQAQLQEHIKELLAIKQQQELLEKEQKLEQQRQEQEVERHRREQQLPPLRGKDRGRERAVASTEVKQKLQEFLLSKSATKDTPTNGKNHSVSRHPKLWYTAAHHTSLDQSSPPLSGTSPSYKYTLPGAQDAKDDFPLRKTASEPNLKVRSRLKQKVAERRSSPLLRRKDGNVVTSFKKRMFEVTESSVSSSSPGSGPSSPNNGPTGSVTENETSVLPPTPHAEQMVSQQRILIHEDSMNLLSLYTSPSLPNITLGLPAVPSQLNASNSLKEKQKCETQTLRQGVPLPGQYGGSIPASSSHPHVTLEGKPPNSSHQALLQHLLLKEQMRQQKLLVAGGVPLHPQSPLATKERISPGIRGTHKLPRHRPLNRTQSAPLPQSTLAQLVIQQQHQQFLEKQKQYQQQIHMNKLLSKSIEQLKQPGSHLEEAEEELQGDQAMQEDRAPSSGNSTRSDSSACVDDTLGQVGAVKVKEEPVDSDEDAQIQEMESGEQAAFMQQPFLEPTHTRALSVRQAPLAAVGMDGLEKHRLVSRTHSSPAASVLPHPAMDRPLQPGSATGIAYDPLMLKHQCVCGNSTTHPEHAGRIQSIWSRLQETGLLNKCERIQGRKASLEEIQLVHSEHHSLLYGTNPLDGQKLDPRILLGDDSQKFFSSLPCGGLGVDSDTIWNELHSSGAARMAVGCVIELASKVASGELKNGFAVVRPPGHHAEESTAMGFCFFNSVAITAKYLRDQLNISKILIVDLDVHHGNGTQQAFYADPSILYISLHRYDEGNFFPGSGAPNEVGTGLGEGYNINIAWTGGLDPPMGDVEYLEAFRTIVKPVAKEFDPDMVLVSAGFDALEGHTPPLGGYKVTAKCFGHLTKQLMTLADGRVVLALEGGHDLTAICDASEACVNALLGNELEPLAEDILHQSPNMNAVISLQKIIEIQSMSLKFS

[2] = target: T4, Polyamine deacetylase HDAC10 (Homo sapiens, UniProt Q969S8); test: Inhibition of HDAC10 (unknown origin)
T4 sequence (Q969S8 whole entry): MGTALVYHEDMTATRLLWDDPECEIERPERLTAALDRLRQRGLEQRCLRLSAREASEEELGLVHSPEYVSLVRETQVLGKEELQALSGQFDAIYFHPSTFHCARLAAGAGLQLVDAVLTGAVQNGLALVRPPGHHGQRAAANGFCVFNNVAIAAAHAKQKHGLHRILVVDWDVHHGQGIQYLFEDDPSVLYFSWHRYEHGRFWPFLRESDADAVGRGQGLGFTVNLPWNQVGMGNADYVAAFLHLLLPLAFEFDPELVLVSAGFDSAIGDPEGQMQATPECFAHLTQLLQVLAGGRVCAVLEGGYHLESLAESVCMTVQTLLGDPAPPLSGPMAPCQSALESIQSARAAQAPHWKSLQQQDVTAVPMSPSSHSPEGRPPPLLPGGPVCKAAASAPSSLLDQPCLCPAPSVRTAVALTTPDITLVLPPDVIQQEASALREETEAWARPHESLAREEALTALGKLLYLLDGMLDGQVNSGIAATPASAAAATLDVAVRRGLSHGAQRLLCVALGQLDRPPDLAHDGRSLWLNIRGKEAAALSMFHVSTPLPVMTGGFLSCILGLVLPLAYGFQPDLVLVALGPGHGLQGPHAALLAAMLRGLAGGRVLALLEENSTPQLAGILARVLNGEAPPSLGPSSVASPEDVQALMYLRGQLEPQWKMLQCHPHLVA

Histone deacetylase 11 = target: T5, Histone deacetylase 11 (Homo sapiens, UniProt Q96DB2); test: Inhibition of HDAC11 (unknown origin)
T5 sequence (Q96DB2 whole entry): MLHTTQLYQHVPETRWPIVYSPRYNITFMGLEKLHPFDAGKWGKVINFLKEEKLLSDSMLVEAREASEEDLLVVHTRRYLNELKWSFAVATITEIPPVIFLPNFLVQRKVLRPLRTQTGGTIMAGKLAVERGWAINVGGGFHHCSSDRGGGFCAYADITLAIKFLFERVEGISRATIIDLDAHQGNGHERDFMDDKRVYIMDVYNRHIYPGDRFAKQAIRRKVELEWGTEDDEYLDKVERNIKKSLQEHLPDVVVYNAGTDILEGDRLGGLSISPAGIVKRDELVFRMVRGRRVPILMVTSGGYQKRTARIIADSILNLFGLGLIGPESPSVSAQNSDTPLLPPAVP

Histone deacetylase 3 = Histone deacetylase 3 (Homo sapiens, UniProt O15379); test: Inhibition of HDAC3 (unknown origin)
Histone deacetylase 2 = Histone deacetylase 2 (Homo sapiens, UniProt Q92769); test: Inhibition of HDAC2 (unknown origin)
Histone deacetylase 2, sequence (Q92769 whole entry): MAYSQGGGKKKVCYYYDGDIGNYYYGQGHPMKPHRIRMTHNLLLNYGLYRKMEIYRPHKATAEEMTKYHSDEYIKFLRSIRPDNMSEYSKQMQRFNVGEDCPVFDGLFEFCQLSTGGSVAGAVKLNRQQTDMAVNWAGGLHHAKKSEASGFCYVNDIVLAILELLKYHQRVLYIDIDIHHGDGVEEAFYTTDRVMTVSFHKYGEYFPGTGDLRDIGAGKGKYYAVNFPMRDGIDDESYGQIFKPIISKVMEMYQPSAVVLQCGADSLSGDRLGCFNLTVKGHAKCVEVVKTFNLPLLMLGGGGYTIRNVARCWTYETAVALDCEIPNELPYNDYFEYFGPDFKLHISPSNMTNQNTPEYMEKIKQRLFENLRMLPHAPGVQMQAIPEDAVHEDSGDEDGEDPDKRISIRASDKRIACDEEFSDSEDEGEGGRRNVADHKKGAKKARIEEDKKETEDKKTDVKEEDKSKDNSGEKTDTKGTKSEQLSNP

Sphingosine kinase 1 = Sphingosine kinase 1 (Homo sapiens, UniProt Q9NYA1); test: Inhibition of SPHK1 (unknown origin)
Sphingosine kinase 1, sequence (Q9NYA1 whole entry): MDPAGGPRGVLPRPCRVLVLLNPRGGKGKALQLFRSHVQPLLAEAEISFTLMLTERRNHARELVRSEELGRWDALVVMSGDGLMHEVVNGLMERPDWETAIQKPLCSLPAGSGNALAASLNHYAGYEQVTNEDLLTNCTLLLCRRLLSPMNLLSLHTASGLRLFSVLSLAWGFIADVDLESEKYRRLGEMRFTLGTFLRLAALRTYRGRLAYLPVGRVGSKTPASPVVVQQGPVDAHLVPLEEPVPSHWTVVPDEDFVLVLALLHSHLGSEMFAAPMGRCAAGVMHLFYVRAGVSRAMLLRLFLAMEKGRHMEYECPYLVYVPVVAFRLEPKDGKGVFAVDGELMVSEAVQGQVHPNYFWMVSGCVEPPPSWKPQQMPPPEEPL

Vasopressin V1a receptor, sequence (P37288 whole entry): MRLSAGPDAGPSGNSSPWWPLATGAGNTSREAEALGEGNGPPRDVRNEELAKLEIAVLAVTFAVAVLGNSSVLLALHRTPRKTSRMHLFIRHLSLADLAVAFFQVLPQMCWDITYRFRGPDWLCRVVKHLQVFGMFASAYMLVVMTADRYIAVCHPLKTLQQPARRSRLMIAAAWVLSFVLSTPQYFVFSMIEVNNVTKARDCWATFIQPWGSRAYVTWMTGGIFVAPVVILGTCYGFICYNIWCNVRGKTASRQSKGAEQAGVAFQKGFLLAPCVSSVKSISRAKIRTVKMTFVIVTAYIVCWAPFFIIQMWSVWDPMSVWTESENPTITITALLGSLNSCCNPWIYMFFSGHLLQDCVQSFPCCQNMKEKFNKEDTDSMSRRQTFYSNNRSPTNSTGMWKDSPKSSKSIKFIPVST

`Cc1ccccc1C(=O)Nc1ccc(C(=O)N2CCC[C@H](N(C)C)c3ccccc32)cc1` gave an IC50 (Vasopressin V1a receptor) of 14 µM.
For `CN1CCCC(n2nc(Cc3ccc(Cl)cc3)c3ccccc3c2=O)CC1` (stereo not given) [AZELASTINE], the Kd (Spike glycoprotein) was 0.258 µM.
`CC1C[C@]2(C)C(NCCCNCCCCNCCCN)=Nc3ccccc3[C@]2(C)N(C)c2ccccc21` (stereo not given in full) gave an IC50 (MCF7) of 9.84 µM.
`O=C(NO)c1ccc(CN2c3ccccc3SC[C@H]3CCCC[C@H]32)cc1` was tested, and the IC50 (Histone deacetylase 1) was over 30 µM, the IC50 (Histone deacetylase 4) was over 30 µM and the IC50 (Histone deacetylase 5) was 27 µM. The IC50 [1] was 0.03 µM, the IC50 (Histone deacetylase 7) was over 30 µM and the IC50 (Histone deacetylase 8) was 5.3 µM. It also gave an IC50 (Histone deacetylase 9) of 25 µM, an IC50 [2] of over 30 µM and an IC50 (Histone deacetylase 11) of 1.5 µM.
`O=C(NO)c1ccc(CN2c3cc(C(F)(F)F)ccc3S(=O)(=O)C[C@H]3CCCC[C@H]32)cc1` was tested, and the IC50 (Histone deacetylase 1) was 8.8 µM, the IC50 (Histone deacetylase 3) was 16 µM and the IC50 (Histone deacetylase 2) was 16 µM. For the same compound, the IC50 (Histone deacetylase 5) was 22 µM, the IC50 [1] was 0.01 µM and the IC50 (Histone deacetylase 7) was 15 µM. It also gave an IC50 (Histone deacetylase 8) of 2 µM, an IC50 (Histone deacetylase 9) of over 30 µM and an IC50 [2] of 9.4 µM. It also gave an IC50 (Histone deacetylase 11) of 0.85 µM.
In the case of `NCCCNCCCCNCCCNC1=Nc2ccccc2CCC1`, the IC50 (MCF7) is reported as over 50 µM.
`Brc1cc2c(c3ccccc13)N1OC(C2)CC1CCc1ccccc1` (stereo not given) showed an IC50 (Sphingosine kinase 1) of over 650 µM.
For `CC1Cc2c(Cl)nc(-c3ccccc3)nc2N(C)c2ccc(O)cc21` (stereo not given), the IC50 (Sphingosine kinase 1) was over 650 µM.

— ChEMBL document CHEMBL6078616, “Seven-membered N-heterocycles as approved drugs and promising leads in medicinal chemistry as well as the metal-free domino access to their scaffolds” (Eur J Med Chem, 2024)
